{"source": "ChEMBL document CHEMBL1201862", "about": "“PubChem BioAssay data set” (2004)", "assay_in_all_cases": "growth of human tumour cells (NCI), 48 h", "key": {"786-0": {"test_system": "786-0"}, "A498": {"test_system": "A498"}, "A549": {"test_system": "A549"}, "ACHN": {"test_system": "ACHN"}, "BT-549": {"test_system": "BT-549"}, "CAKI-1": {"test_system": "CAKI-1"}, "CCRF-CEM": {"test_system": "CCRF-CEM"}, "COLO 205": {"test_system": "COLO 205"}, "DU-145": {"test_system": "DU-145"}, "EKVX": {"test_system": "EKVX"}, "HCT-116": {"test_system": "HCT-116"}, "HCT-15": {"test_system": "HCT-15"}, "HL-60": {"test_system": "HL-60"}, "HOP-62": {"test_system": "HOP-62"}, "HOP-92": {"test_system": "HOP-92"}, "HT-29": {"test_system": "HT-29"}, "Hs-578T": {"test_system": "Hs-578T"}, "IGROV-1": {"test_system": "IGROV-1"}, "K562": {"test_system": "K562"}, "KM12": {"test_system": "KM12"}, "LOX IMVI": {"test_system": "LOX IMVI"}, "M14": {"test_system": "M14"}, "MCF7": {"test_system": "MCF7"}, "MDA-MB-435": {"test_system": "MDA-MB-435"}, "MDA-N": {"test_system": "MDA-N"}, "MOLT-4": {"test_system": "MOLT-4"}, "Malme-3M": {"test_system": "Malme-3M"}, "NCI-H226": {"test_system": "NCI-H226"}, "NCI-H23": {"test_system": "NCI-H23"}, "NCI-H460": {"test_system": "NCI-H460"}, "NCI-H522": {"test_system": "NCI-H522"}, "NCI/ADR-RES": {"test_system": "NCI/ADR-RES"}, "OVCAR-3": {"test_system": "OVCAR-3"}, "OVCAR-4": {"test_system": "OVCAR-4"}, "OVCAR-5": {"test_system": "OVCAR-5"}, "OVCAR-8": {"test_system": "OVCAR-8"}, "PC-3": {"test_system": "PC-3"}, "RPMI-8226": {"test_system": "RPMI-8226"}, "RXF 393": {"test_system": "RXF 393"}, "SF-268": {"test_system": "SF-268"}, "SF-295": {"test_system": "SF-295"}, "SF-539": {"test_system": "SF-539"}, "SK-MEL-2": {"test_system": "SK-MEL-2"}, "SK-MEL-5": {"test_system": "SK-MEL-5"}, "SK-OV-3": {"test_system": "SK-OV-3"}, "SN12C": {"test_system": "SN12C"}, "SNB-19": {"test_system": "SNB-19"}, "SNB-75": {"test_system": "SNB-75"}, "SR": {"test_system": "SR"}, "SW-620": {"test_system": "SW-620"}, "T47D": {"test_system": "T47D"}, "TK-10": {"test_system": "TK-10"}, "U-251": {"test_system": "U-251"}, "UACC-257": {"test_system": "UACC-257"}, "UACC-62": {"test_system": "UACC-62"}, "UO-31": {"test_system": "UO-31"}}, "note": "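Where inhibition never reached the appropriate level, the endpoint shown equals the highest concentration tested. Otherwise, values were interpolated linearly from a five-concentration, 48-hour dose response in 96-well plates. GI50 = concentration required for 50% inhibition of growth.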 The source made the active and inactive calls. No stated cut-off is given here; in the data, active = GI50 up to about 1.1 µM and inactive = higher.", "data": [{"compound": "O=c1c2cc(S(=O)(=O)O)ccc2nc(COc2ccc(Oc3ccc(Cl)cc3Cl)cc2)n1-c1ccc(Oc2ccc(Cl)cc2)cc1Cl", "values": [{"measurement": "GI50", "setting": "786-0", "result": "20 µM (inactive)"}, {"measurement": "GI50", "setting": "A498", "result": "23.3 µM (inactive)"}, {"measurement": "GI50", "setting": "A549", "result": "19.3 µM (inactive)"}, {"measurement": "GI50", "setting": "ACHN", "result": "24.5 µM (inactive)"}, {"measurement": "GI50", "setting": "BT-549", "result": "17.1 µM (inactive)"}, {"measurement": "GI50", "setting": "CAKI-1", "result": "30.8 µM (inactive)"}, {"measurement": "GI50", "setting": "CCRF-CEM", "result": "27.7 µM (inactive)"}, {"measurement": "GI50", "setting": "COLO 205", "result": "17.9 µM (inactive)"}, {"measurement": "GI50", "setting": "DU-145", "result": "38.3 µM (inactive)"}, {"measurement": "GI50", "setting": "EKVX", "result": "17.6 µM (inactive)"}, {"measurement": "GI50", "setting": "HCT-116", "result": "20.8 µM (inactive)"}, {"measurement": "GI50", "setting": "HCT-15", "result": 19.9, "unit": "µM"}, {"measurement": "GI50", "setting": "HL-60", "result": "19.2 µM (inactive)"}, {"measurement": "GI50", "setting": "HOP-62", "result": "21.4 µM (inactive)"}, {"measurement": "GI50", "setting": "HOP-92", "result": "12.8 µM (inactive)"}, {"measurement": "GI50", "setting": "HT-29", "result": "18.7 µM (inactive)"}, {"measurement": "GI50", "setting": "Hs-578T", "result": "20 µM (inactive)"}, {"measurement": "GI50", "setting": "IGROV-1", "result": "23.1 µM (inactive)"}, {"measurement": "GI50", "setting": "K562", "result": "28.2 µM (inactive)"}, {"measurement": "GI50", "setting": "KM12", "result": "28.5 µM (inactive)"}, {"measurement": "GI50", "setting": "LOX IMVI", "result": "16.4 µM (inactive)"}, {"measurement": "GI50", "setting": "M14", "result": "19.4 µM (inactive)"}, {"measurement": "GI50", "setting": "MCF7", "result": "20.7 µM (inactive)"}, {"measurement": "GI50", "setting": "MDA-MB-435", "result": "19.7 µM (inactive)"}, {"measurement": "GI50", "setting": "MDA-N", "result": "23.7 µM (inactive)"}, {"measurement": "GI50", "setting": "MOLT-4", "result": "10.4 µM (inactive)"}, {"measurement": "GI50", "setting": "Malme-3M", "result": "28.1 µM (inactive)"}, {"measurement": "GI50", "setting": "NCI-H226", "result": "19.5 µM (inactive)"}, {"measurement": "GI50", "setting": "NCI-H23", "result": "21.7 µM (inactive)"}, {"measurement": "GI50", "setting": "NCI-H460", "result": "16.6 µM (inactive)"}, {"measurement": "GI50", "setting": "NCI-H522", "result": "20.4 µM (inactive)"}, {"measurement": "GI50", "setting": "NCI/ADR-RES", "result": "18.3 µM (inactive)"}, {"measurement": "GI50", "setting": "OVCAR-3", "result": "18.3 µM (inactive)"}, {"measurement": "GI50", "setting": "OVCAR-4", "result": "25.2 µM (inactive)"}, {"measurement": "GI50", "setting": "OVCAR-5", "result": "23.2 µM (inactive)"}, {"measurement": "GI50", "setting": "OVCAR-8", "result": "19 µM (inactive)"}, {"measurement": "GI50", "setting": "PC-3", "result": "26.7 µM (inactive)"}, {"measurement": "GI50", "setting": "RPMI-8226", "result": "21.1 µM (inactive)"}, {"measurement": "GI50", "setting": "RXF 393", "result": "0.0752 µM (active)"}, {"measurement": "GI50", "setting": "SF-268", "result": "12.7 µM (inactive)"}, {"measurement": "GI50", "setting": "SF-295", "result": "18.3 µM (inactive)"}, {"measurement": "GI50", "setting": "SF-539", "result": "16.7 µM (inactive)"}, {"measurement": "GI50", "setting": "SK-MEL-2", "result": "16.5 µM (inactive)"}, {"measurement": "GI50", "setting": "SK-MEL-5", "result": "18.6 µM (inactive)"}, {"measurement": "GI50", "setting": "SK-OV-3", "result": "22.6 µM (inactive)"}, {"measurement": "GI50", "setting": "SN12C", "result": "17.7 µM (inactive)"}, {"measurement": "GI50", "setting": "SNB-19", "result": "26.4 µM (inactive)"}, {"measurement": "GI50", "setting": "SNB-75", "result": "22.6 µM (inactive)"}, {"measurement": "GI50", "setting": "SR", "result": "15.2 µM (inactive)"}, {"measurement": "GI50", "setting": "SW-620", "result": "21.5 µM (inactive)"}, {"measurement": "GI50", "setting": "T47D", "result": "33.1 µM (inactive)"}, {"measurement": "GI50", "setting": "TK-10", "result": "22 µM (inactive)"}, {"measurement": "GI50", "setting": "U-251", "result": "16 µM (inactive)"}, {"measurement": "GI50", "setting": "UACC-257", "result": "25.2 µM (inactive)"}, {"measurement": "GI50", "setting": "UACC-62", "result": "17.4 µM (inactive)"}, {"measurement": "GI50", "setting": "UO-31", "result": "13.9 µM (inactive)"}]}]}
